Results reported in patent US9694016B2 (Novartis AG, priority 2013, dated 2017).

These molecules were tested against b-Raf (V600E) (Homo sapiens (Human), UniProt P15056, V600E). Conditions: read-out: b-Raf IC-50; AlphaScreen, 60 min pre-incubation, 3 hours reaction.
b-Raf (V600E), sequence (P15056 whole entry V600E): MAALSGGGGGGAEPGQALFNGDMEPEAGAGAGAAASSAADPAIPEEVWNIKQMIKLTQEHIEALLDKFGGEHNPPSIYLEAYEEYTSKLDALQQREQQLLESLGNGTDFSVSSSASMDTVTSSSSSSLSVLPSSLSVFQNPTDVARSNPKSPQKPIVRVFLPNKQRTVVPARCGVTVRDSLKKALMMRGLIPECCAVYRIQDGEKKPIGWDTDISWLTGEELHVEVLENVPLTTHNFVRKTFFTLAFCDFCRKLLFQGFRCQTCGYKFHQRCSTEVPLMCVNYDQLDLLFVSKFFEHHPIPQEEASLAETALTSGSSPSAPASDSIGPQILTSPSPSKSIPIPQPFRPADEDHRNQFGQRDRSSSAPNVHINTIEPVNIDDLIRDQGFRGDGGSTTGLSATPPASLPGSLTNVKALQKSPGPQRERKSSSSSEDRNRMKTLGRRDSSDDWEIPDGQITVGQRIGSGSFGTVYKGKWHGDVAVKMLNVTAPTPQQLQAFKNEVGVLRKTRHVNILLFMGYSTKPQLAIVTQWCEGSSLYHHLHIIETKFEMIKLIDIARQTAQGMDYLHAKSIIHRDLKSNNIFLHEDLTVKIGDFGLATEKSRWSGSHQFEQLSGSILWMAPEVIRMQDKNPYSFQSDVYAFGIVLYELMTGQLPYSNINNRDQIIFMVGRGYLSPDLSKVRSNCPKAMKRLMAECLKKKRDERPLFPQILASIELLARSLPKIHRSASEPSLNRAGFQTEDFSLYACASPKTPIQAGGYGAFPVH
Molecule `CCOc1nnc(-c2cc(NC(=O)c3ccc(CN(C)C)c(C(F)(F)F)c3)ccc2C)cc1N1CCOCC1` [Example 576, 4-((dimethylamino)methyl)-N-(3-(6-ethoxy-5-morpholinopyridazin-3-yl)-4-methylphenyl)-3-(trifluoromethyl)benzamide] has an IC50 of 3.5 nM. For `Cc1ccc(NC(=O)c2ccnc(C(C)(C)F)c2)cc1-c1cc(N2CCOCC2)c(OC2CCOCC2)nn1` [Example 578, 2-(2-fluoropropan-2-yl)-N-(4-methyl-3-(5-morpholino-6-((tetrahydro-2H-pyran-4-yl)oxy)pyridazin-3-yl)phenyl)isonicotinamide], the IC50 was 0.8 nM. In the case of `Cc1ccc(NC(=O)c2ccnc(C(C)(F)F)c2)cc1-c1cc(N2CCOCC2)c(OC2CCOCC2)nn1` [Example 579, 2-(1,1-difluoroethyl)-N-(4-methyl-3-(5-morpholino-6-((tetrahydro-2H-pyran-4-yl)oxy)pyridazin-3-yl)phenyl)isonicotinamide], the IC50 is reported as 0.6 nM. For `Cc1ccc(NC(=O)c2cc(C(F)(F)F)ccn2)cc1-c1cc(N2CCOCC2)c(OC2CCOCC2)nn1` [Example 580, N-(4-methyl-3-(5-morpholino-6-((tetrahydro-2H-pyran-4-yl)oxy)pyridazin-3-yl)phenyl)-4-(trifluoromethyl)picolinamide], the IC50 was 0.5 nM. For `Cc1ccc(NC(=O)c2ccnc(C(C)(C)O)c2)cc1-c1cc(N2CCOCC2)c(OC2CCOCC2)nn1` [Example 581, 2-(2-hydroxypropan-2-yl)-N-(4-methyl-3-(5-morpholino-6-((tetrahydro-2H-pyran-4-yl)oxy)pyridazin-3-yl)phenyl)isonicotinamide], the IC50 was 2.2 nM. `Cc1ccc(NC(=O)c2ccnc(S(C)(=O)=O)c2)cc1-c1cc(N2CCOCC2)c(OC2CCOCC2)nn1` [Example 582, N-(4-methyl-3-(5-morpholino-6-((tetrahydro-2H-pyran-4-yl)oxy)pyridazin-3-yl)phenyl)-2-(methylsulfonyl)isonicotinamide] was tested, and the IC50 was 0.8 nM. `Cc1ccc(NC(=O)c2cnnc(C(C)(C)C#N)c2)cc1-c1cc(N2CCOCC2)c(OC2CCOCC2)nn1` [Example 583, 6-(2-cyanopropan-2-yl)-N-(4-methyl-3-(5-morpholino-6-((tetrahydro-2H-pyran-4-yl)oxy)pyridazin-3-yl)phenyl)pyridazine-4-carboxamide] was tested, and the IC50 was 1.3 nM. In the case of `Cc1ccc(NC(=O)c2ccnc(C(C)(C)C#N)c2)cc1-c1cc(N2CCOCC2)c(OC2CCOCC2)nn1` [Example 584, 2-(2-cyanopropan-2-yl)-N-(4-methyl-3-(5-morpholino-6-((tetrahydro-2H-pyran-4-yl)oxy)pyridazin-3-yl)phenyl)isonicotinamide], the IC50 is reported as 1.2 nM. For `Cc1ccc(NC(=O)c2ccnc(C(F)(F)F)c2)cc1-c1cc(N2CCOCC2)c(OCCO)nn1` [Example 585, N-(3-(6-(2-hydroxyethoxy)-5-morpholinopyridazin-3-yl)-4-methylphenyl)-2-(trifluoromethyl)isonicotinamide], the IC50 was 1.4 nM. For `Cc1ccc(NC(=O)c2cc(C(F)(F)F)ccn2)cc1-c1cc(N2CCOCC2)c(OCCO)nn1` [Example 586, N-(3-(6-(2-hydroxyethoxy)-5-morpholinopyridazin-3-yl)-4-methylphenyl)-4-(trifluoromethyl)picolinamide], the IC50 was 1 nM. `Cc1ccc(NC(=O)c2ccnc(C(C)(F)F)c2)cc1-c1cc(N2CCOCC2)c(OCCO)nn1` [Example 587, 2-(1,1-difluoroethyl)-N-(3-(6-(2-hydroxyethoxy)-5-morpholinopyridazin-3-yl)-4-methylphenyl)isonicotinamide] showed an IC50 of 1.1 nM. In the case of `Cc1ccc(NC(=O)c2ccnc(C(C)(C)F)c2)cc1-c1cc(N2CCOCC2)c(OCCO)nn1` [Example 588, 2-(2-fluoropropan-2-yl)-N-(3-(6-(2-hydroxyethoxy)-5-morpholinopyridazin-3-yl)-4-methylphenyl)isonicotinamide], the IC50 is reported as 2.2 nM. For `CCC(F)(F)c1cc(C(=O)Nc2ccc(C)c(-c3cc(N4CCOCC4)c(OCCO)nn3)c2)ccn1` [Example 589, 2-(1,1-difluoropropyl)-N-(3-(6-(2-hydroxyethoxy)-5-morpholinopyridazin-3-yl)-4-methylphenyl)isonicotinamide], the IC50 was 1.5 nM. Molecule `Cc1ccc(NC(=O)c2ccnc(C(C)(C)C#N)c2)cc1-c1cc(N2CCOCC2)c(OCCO)nn1` [Example 591, 2-(2-cyanopropan-2-yl)-N-(3-(6-(2-hydroxyethoxy)-5-morpholinopyridazin-3-yl)-4-methylphenyl)isonicotinamide] has an IC50 of 2.1 nM. `Cc1ccc(NC(=O)c2ccnc(C(C)(F)F)c2)cc1-c1cc(N2CCOCC2)c(OC(C)C)nn1` [Example 592, 2-(1,1-difluoroethyl)-N-(3-(6-isopropoxy-5-morpholinopyridazin-3-yl)-4-methylphenyl)isonicotinamide] showed an IC50 of 0.7 nM. Molecule `Cc1ccc(NC(=O)c2ccnc(C(F)F)c2)cc1-c1cc(N2CCOCC2)c(OC(C)C)nn1` [Example 593, 2-(difluoromethyl)-N-(3-(6-isopropoxy-5-morpholinopyridazin-3-yl)-4-methylphenyl)isonicotinamide] has an IC50 of 0.6 nM. In the case of `Cc1ccc(NC(=O)c2cc(C(F)(F)F)ccn2)cc1-c1cc(N2CCOCC2)c(OC(C)C)nn1` [Example 594, N-(3-(6-isopropoxy-5-morpholinopyridazin-3-yl)-4-methylphenyl)-4-(trifluoromethyl)picolinamide], the IC50 is reported as 0.8 nM. Work on `Cc1ccc(NC(=O)c2ccnc(C(C)(C)F)c2)cc1-c1cc(N2CCOCC2)c(OC(C)C)nn1` [Example 595, 2-(2-fluoropropan-2-yl)-N-(3-(6-isopropoxy-5-morpholinopyridazin-3-yl)-4-methylphenyl)isonicotinamide] yielded an IC50 of 0.6 nM. For `COCCOc1nnc(-c2cc(NC(=O)c3ccnc(C(C)(F)F)c3)ccc2C)cc1N1CCOCC1` [Example 597, 2-(1,1-difluoroethyl)-N-(3-(6-(2-methoxyethoxy)-5-morpholinopyridazin-3-yl)-4-methylphenyl)isonicotinamide], the IC50 was 0.5 nM. Molecule `COCCOc1nnc(-c2cc(NC(=O)c3ccnc(C(F)F)c3)ccc2C)cc1N1CCOCC1` [Example 598, 2-(difluoromethyl)-N-(3-(6-(2-methoxyethoxy)-5-morpholinopyridazin-3-yl)-4-methylphenyl)isonicotinamide] has an IC50 of 1.1 nM. `COCCOc1nnc(-c2cc(NC(=O)c3cc(C(F)(F)F)ccn3)ccc2C)cc1N1CCOCC1` [Example 599, N-(3-(6-(2-methoxyethoxy)-5-morpholinopyridazin-3-yl)-4-methylphenyl)-4-(trifluoromethyl)picolinamide] gave an IC50 of 0.5 nM. `COCCOc1nnc(-c2cc(NC(=O)c3ccnc(C(C)(C)F)c3)ccc2C)cc1N1CCOCC1` [Example 600, 2-(2-fluoropropan-2-yl)-N-(3-(6-(2-methoxyethoxy)-5-morpholinopyridazin-3-yl)-4-methylphenyl)isonicotinamide] gave an IC50 of 0.8 nM. For `COCCOc1nnc(-c2cc(NC(=O)c3ccnc(C(C)(C)C#N)c3)ccc2C)cc1N1CCOCC1` [Example 601, 2-(2-cyanopropan-2-yl)-N-(3-(6-(2-methoxyethoxy)-5-morpholinopyridazin-3-yl)-4-methylphenyl)isonicotinamide], the IC50 was 1.1 nM. Work on `COc1nnc(-c2cc(NC(=O)c3ccnc(C(C)(F)F)c3)cnc2C)cc1N1CCOCC1` [Example 603, 2-(1,1-difluoroethyl)-N-(5-(6-methoxy-5-morpholinopyridazin-3-yl)-6-methylpyridin-3-yl)isonicotinamide] yielded an IC50 of 2.7 nM. With `COc1nnc(-c2cc(NC(=O)c3cccc(C(F)F)c3)cnc2C)cc1N1CCOCC1` [Example 604, 3-(difluoromethyl)-N-(5-(6-methoxy-5-morpholinopyridazin-3-yl)-6-methylpyridin-3-yl)benzamide] the IC50 was 2.3 nM. `COc1nnc(-c2cc(NC(=O)c3ccnc(C(F)(F)F)c3)cnc2C)cc1N1CCOCC1` [Example 605, N-(5-(6-methoxy-5-morpholinopyridazin-3-yl)-6-methylpyridin-3-yl)-2-(trifluoromethyl)isonicotinamide] was tested, and the IC50 was 2.7 nM. Molecule `COc1nnc(-c2cc(NC(=O)c3ccnc(C4CC4)c3)cnc2C)cc1N1CCOCC1` [Example 606, 2-cyclopropyl-N-(5-(6-methoxy-5-morpholinopyridazin-3-yl)-6-methylpyridin-3-yl)isonicotinamide] has an IC50 of 3.5 nM. With `CCC(F)(F)c1cc(C(=O)Nc2cnc(C)c(-c3cc(N4CCOCC4)c(OC)nn3)c2)ccn1` [Example 607, 2-(1,1-difluoropropyl)-N-(5-(6-methoxy-5-morpholinopyridazin-3-yl)-6-methylpyridin-3-yl)isonicotinamide] the IC50 was 4.7 nM. With `CCOc1nnc(-c2cc(NC(=O)c3cccc(C(F)(F)F)c3)cnc2C)cc1N1CCOCC1` [Example 609, N-(5-(6-ethoxy-5-morpholinopyridazin-3-yl)-6-methylpyridin-3-yl)-3-(trifluoromethyl)benzamide] the IC50 was 0.9 nM. `CCOc1nnc(-c2cc(NC(=O)c3ccnc(C(C)(C)F)c3)cnc2C)cc1N1CCOCC1` [Example 610, N-(5-(6-ethoxy-5-morpholinopyridazin-3-yl)-6-methylpyridin-3-yl)-2-(2-fluoropropan-2-yl)isonicotinamide] showed an IC50 of 4.5 nM. `CCOc1nnc(-c2cc(NC(=O)c3cc(C(F)(F)F)ccn3)cnc2C)cc1N1CCOCC1` [Example 611, N-(5-(6-ethoxy-5-morpholinopyridazin-3-yl)-6-methylpyridin-3-yl)-4-(trifluoromethyl)picolinamide] showed an IC50 of 1.3 nM. `CCOc1nnc(-c2cc(NC(=O)c3ccnc(C4CC4)c3)cnc2C)cc1N1CCOCC1` [Example 612, 2-cyclopropyl-N-(5-(6-ethoxy-5-morpholinopyridazin-3-yl)-6-methylpyridin-3-yl)isonicotinamide] was tested, and the IC50 was 1.8 nM. In the case of `CCOc1nnc(-c2cc(NC(=O)c3ccnc(C(C)(C)C#N)c3)cnc2C)cc1N1CCOCC1` [Example 613, 2-(2-cyanopropan-2-yl)-N-(5-(6-ethoxy-5-morpholinopyridazin-3-yl)-6-methylpyridin-3-yl)isonicotinamide], the IC50 is reported as 10 nM. `CCOc1nnc(-c2cc(NC(=O)c3cnnc(C(F)(F)F)c3)cnc2C)cc1N1CCOCC1` [Example 614, N-(5-(6-ethoxy-5-morpholinopyridazin-3-yl)-6-methylpyridin-3-yl)-6-(trifluoromethyl)pyridazine-4-carboxamide] showed an IC50 of 4.2 nM.
